Biological target: mAb 10D6 (anti-PS-I IgG1)
Assay: Kinetic SPR of glycans binding to captured mAb 10D6
Design: species or system mouse
Conditions: mAb 10D6, PBS, 25 °C, mean±s.e.m. n=3 or mean (min;max) n=2
Method: Kinetic SPR experiments were performed to determine the binding strengths of the mAbs to PS-I glycans expressed as dissociation constants (KD)[8] (Fig. 5a). […] Overall, the SPR measurements (summarized in Table 1) confirmed results obtained by glycan microarray presented above.
Binding analyses were carried out on a Biacore T100 instrument (GE Healthcare). CM5 sensor chips were functionalized with about 10,000 RUs of α-mouse IgG capture antibody, using the Mouse Antibody Capture Kit and the Amine Coupling Kit (GE Healthcare) according to the manufacturer's recommendations. A blank-immobilized flow cell was used as reference, to compensate for nonspecific binding of antibodies or oligosaccharides to the sensor chip surface. Kinetic measurements were performed with the Biacore T100 Control software using the ‘Kinetics' function. PBS was used as running buffer and all measurements were performed at 25 °C and a flow rate of 30 μl min^−1. About 500 RUs of mAbs were captured at a concentration of 50 μg ml^−1 diluted in PBS and oligosaccharides or OAAs (in PBS) at the indicated concentrations were passed through, using the standard parameters for association and dissociation times unless mentioned otherwise. […] The fitting quality was evaluated by investigating respective residual plots, χ^2 and s.e. values for on- and off-rates. […]
All sensorgrams were recorded on a Biacore T100 instrument (GE […]

C[C@@H]1O[C@@H](O[C@@H]2[C@@H](O)[C@H](O[C@H]3[C@H](O[C@@H]4O[C@@H](C)[C@H](O)[C@@H](O)[C@H]4O)[C@@H](O)[C@@H](O[C@H]4[C@@H](OCCCCCN)O[C@H](CO)[C@@H](O)[C@@H]4O)O[C@@H]3CO)O[C@H](CO)[C@H]2O)[C@H](O)[C@H](O)[C@H]1O [Compound 1]
Kd: 0.169 µM

C[C@@H]1O[C@@H](O[C@@H]2[C@@H](O)[C@H](OCCCCCN)O[C@H](CO)[C@H]2O)[C@H](O)[C@H](O)[C@H]1O [Compound 3, Rha-(1→3)-Glc]
Kd: 37.5 ± 0.4 µM

From PMC4838876, “Multivalent display of minimal Clostridium difficile glycan epitopes mimics antigenic properties of larger glycans” (Nature Communications, 2016)
